Data published in patent US20170190671A1, “BIS(ARYL)CATECHOL DERIVATIVES AS HERBICIDES” (E I DU PONT DE NEMOURS AND COMPANY, priority 2014, published 2017).

Assays:
Type in all cases: in vivo
[1] = system: ragweed (common ragweed, Ambrosia elatior); assay: Test C preemergence; settings: scale 0 to 100
Procedure, shortened: (§1)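 Greenhouse test; preemergence to seeds in loam/sand soil, or postemergence spray to 2-18 cm, 1- to 4-leaf plants in peat/vermiculite medium; compound in non-phytotoxic solvent plus surfactant. Visual rating vs controls at 13-15 d, 0 = no effect, 100 = complete control.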

[2] = system: galium (catchweed bedstraw, Galium aparine); assay: Test C preemergence; settings: scale 0 to 100
Procedure, shortened: as §1

[3] = system: ducksalad (Heteranthera limosa); assay: Test B flooded paddy; settings: 250 g ai/ha, Flood, 13 to 15 days, scale 0 (no effect) to 100 (complete control)
Procedure, shortened: (§2)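 Pots were flooded to 3 cm above the soil surface at treatment, compound applied directly to the paddy water, and that depth held throughout. Plants were kept in a greenhouse for 13 to 15 days, then visually rated against untreated controls.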

[4] = system: sedge, umbrella (small-flower umbrella sedge, Cyperus difformis); assay: Test B flooded paddy; settings: 250 g ai/ha, Flood, 13 to 15 days, scale 0 (no effect) to 100 (complete control)
Procedure, shortened: as §2

[5] = system: barnyardgrass (Echinochloa crus-galli); assay: Test B flooded paddy; settings: 250 g ai/ha, Flood, 13 to 15 days, scale 0 (no effect) to 100 (complete control)
Procedure, shortened: as §2

rice (Oryza sativa) = assay: Test B flooded paddy; settings: 250 g ai/ha, Flood, 13 to 15 days, scale 0 (no effect) to 100 (complete control)
Procedure, shortened: as §2

[6] = system: ragweed (common ragweed, Ambrosia elatior); assay: Test A preemergence; settings: 1000 g ai/ha, 0 to 100 scale
Procedure, shortened: (§3)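 Injury scores run from 0, no effect, to 100, complete control, judged by eye against untreated plants roughly 10 days after treatment. Chemicals carried a surfactant in a non-phytotoxic solvent and went onto loam–sand soil preemergence or onto one- to two-leaf seedlings postemergence.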

kochia (Kochia scoparia) [7] = assay: Test A preemergence; settings: 1000 g ai/ha, 0 to 100 scale
Procedure, shortened: as §3

[8] = system: pigweed (Amaranthus retroflexus); assay: Test A preemergence; settings: 1000 g ai/ha, 0 to 100 scale
Procedure, shortened: as §3

[9] = system: barnyardgrass (Echinochloa crus-galli); assay: Test A preemergence; settings: 1000 g ai/ha, 0 to 100 scale
Procedure, shortened: as §3

[10] = system: giant foxtail (Setaria faberii); assay: Test A preemergence; settings: 1000 g ai/ha, 0 to 100 scale
Procedure, shortened: as §3

[11] = system: Italian ryegrass (Lolium multiflorum); assay: Test A preemergence; settings: 1000 g ai/ha, 0 to 100 scale
Procedure, shortened: as §3

[12] = system: blackgrass (Alopecurus myosuroides); assay: Test A postemergence; settings: 1000 g ai/ha, 0 to 100 scale
Procedure, shortened: as §3

[13] = system: ragweed (common ragweed, Ambrosia elatior); assay: Test A postemergence; settings: 1000 g ai/ha, 0 to 100 scale
Procedure, shortened: as §3

corn (Zea mays) = assay: Test A postemergence; settings: 1000 g ai/ha, 0 to 100 scale
Procedure, shortened: as §3

[14] = system: galium (catchweed bedstraw, Galium aparine); assay: Test A postemergence; settings: 1000 g ai/ha, 0 to 100 scale
Procedure, shortened: as §3

kochia (Kochia scoparia) [15] = assay: Test A postemergence; settings: 1000 g ai/ha, 0 to 100 scale
Procedure, shortened: as §3

[16] = system: pigweed (Amaranthus retroflexus); assay: Test A postemergence; settings: 1000 g ai/ha, 0 to 100 scale
Procedure, shortened: as §3

[17] = system: barnyardgrass (Echinochloa crus-galli); assay: Test A postemergence; settings: 1000 g ai/ha, 0 to 100 scale, 0 no effect, 100 complete control
Procedure, shortened: as §3

[18] = system: giant foxtail (Setaria faberii); assay: Test A postemergence; settings: 1000 g ai/ha, 0 to 100 scale
Procedure, shortened: as §3

[19] = system: Italian ryegrass (Lolium multiflorum); assay: Test A postemergence; settings: 1000 g ai/ha, 0 to 100 scale
Procedure, shortened: as §3

[20] = system: wheat (Triticum aestivum); assay: Test A postemergence; settings: 1000 g ai/ha, 0 to 100 scale
Procedure, shortened: as §3

FC(F)(F)c1cnc(Oc2c(Br)cccc2Oc2ncc(Cl)cn2)nc1 [Compound 24]
Plant response rating, Ragweed ([1]; 31 g ai/ha, Preemergence): 10
Plant response rating, Ragweed ([1]; 62 g ai/ha, Preemergence): 10
Plant response rating, Ragweed ([1]; 125 g ai/ha, Preemergence): 30
Plant response rating, Ragweed ([1]; 250 g ai/ha, preemergence): 80
Plant response rating, Galium ([2]; 31 g ai/ha, Preemergence): 98
Plant response rating, Galium ([2]; 62 g ai/ha, Preemergence): 98
Plant response rating, Galium ([2]; 125 g ai/ha, Preemergence): 100
Plant response rating, Galium ([2]; 250 g ai/ha, preemergence): 100
Plant response rating, Ducksalad [3]: 100
Plant response rating, Sedge, Umbrella [4]: 100
Plant response rating, Barnyardgrass [5]: 50
Plant response rating, Rice (rice (Oryza sativa)): 90
Plant response rating, Ragweed [6]: 70
Plant response rating, Kochia (kochia (Kochia scoparia) [7]): 90
Plant response rating, Pigweed [8]: 100
Plant response rating, Barnyardgrass [9]: 100
Plant response rating, Foxtail, Giant [10]: 100
Plant response rating, Ryegrass, Italian [11]: 80
Plant response rating, Blackgrass [12]: 70
Plant response rating, Ragweed [13]: 60
Plant response rating, Corn (corn (Zea mays)): 50
Plant response rating, Galium [14]: 90
Plant response rating, Kochia (kochia (Kochia scoparia) [15]): 90
Plant response rating, Pigweed [16]: 100
Plant response rating, Barnyardgrass [17]: 90
Plant response rating, Foxtail, Giant [18]: 90
Plant response rating, Ryegrass, Italian [19]: 80
Plant response rating, Wheat [20]: 50

Fc1cccc(Oc2ncc(Cl)cn2)c1Oc1ncc(Br)cn1 [Compound 27, 5-bromo-2-[2-fluoro-6-[(5-chloro-2-pyrimidinyl)oxy]phenoxy]pyrimidine]
pest or weed control at 31 g/ha ([1]; Ambrosia artemisiifolia, pre-emergence, 336 h, 31 g ai/ha, preemergence, read-out: Plant response rating, Ragweed): 20%
pest or weed control at 62 g/ha ([1]; Ambrosia artemisiifolia, pre-emergence, 336 h, 62 g ai/ha, preemergence, read-out: Plant response rating, Ragweed): 60%
pest or weed control at 125 g/ha ([1]; Ambrosia artemisiifolia, pre-emergence, 336 h, 125 g ai/ha, preemergence, read-out: Plant response rating, Ragweed): 70%
pest or weed control at 250 g/ha ([1]; Ambrosia artemisiifolia, pre-emergence, 336 h, 250 g ai/ha, preemergence, read-out: Plant response rating, Ragweed): 85%
pest or weed control at 31 g/ha ([2]; Galium, pre-emergence, 336 h, 31 g ai/ha, preemergence, read-out: Plant response rating, Galium): 100%
pest or weed control at 62 g/ha ([2]; Galium, pre-emergence, 336 h, 62 g ai/ha, preemergence, read-out: Plant response rating, Galium): 100%
pest or weed control at 125 g/ha ([2]; Galium, pre-emergence, 336 h, 125 g ai/ha, preemergence, read-out: Plant response rating, Galium): 100%
pest or weed control at 250 g/ha ([3]; Heteranthera limosa, 336 h, read-out: Plant response rating, Ducksalad): 80%
pest or weed control at 250 g/ha ([4]; Cyperus difformis, 336 h, read-out: Plant response rating, Sedge, Umbrella): 85%
pest or weed control at 250 g/ha ([5]; Echinochloa crus-galli, 336 h, read-out: Plant response rating, Barnyardgrass): 50%
plant injury at 250 g/ha (rice (Oryza sativa); Oryza sativa, 336 h, read-out: Plant response rating, Rice): 60%
pest or weed control at 1000 g/ha ([6]; Ambrosia artemisiifolia, pre-emergence, 240 h, read-out: Plant response rating, Ragweed): 90%
pest or weed control at 1000 g/ha (kochia (Kochia scoparia) [7]; Bassia scoparia, pre-emergence, 240 h, read-out: Plant response rating, Kochia): 100%
pest or weed control at 1000 g/ha ([8]; Amaranthus retroflexus, pre-emergence, 240 h, read-out: Plant response rating, Pigweed): 100%
pest or weed control at 1000 g/ha ([9]; Echinochloa crus-galli, pre-emergence, 240 h, read-out: Plant response rating, Barnyardgrass): 100%
pest or weed control at 1000 g/ha ([10]; Setaria faberi, pre-emergence, 240 h, read-out: Plant response rating, Foxtail, Giant): 100%
pest or weed control at 1000 g/ha ([11]; Lolium multiflorum, pre-emergence, 240 h, read-out: Plant response rating, Ryegrass, Italian): 70%
pest or weed control at 1000 g/ha ([12]; Alopecurus myosuroides, post-emergence, 240 h, read-out: Plant response rating, Blackgrass): 80%
pest or weed control at 1000 g/ha ([13]; Ambrosia artemisiifolia, post-emergence, 240 h, read-out: Plant response rating, Ragweed): 80%
Corn plant response rating (crop injury, 0 = no effect, 100 = complete kill) at 1000 g/ha (corn (Zea mays); Zea mays, post-emergence, 240 h): 40%
pest or weed control at 1000 g/ha ([14]; Galium, post-emergence, 240 h, read-out: Plant response rating, Galium): 90%
pest or weed control at 1000 g/ha (kochia (Kochia scoparia) [15]; Bassia scoparia, post-emergence, 240 h, read-out: Plant response rating, Kochia): 90%
pest or weed control at 1000 g/ha ([16]; Amaranthus retroflexus, post-emergence, 240 h, read-out: Plant response rating, Pigweed): 100%
pest or weed control at 1000 g/ha ([17]; Echinochloa crus-galli, post-emergence, 240 h, read-out: Plant response rating, Barnyardgrass): 90%
pest or weed control at 1000 g/ha ([18]; Setaria faberi, post-emergence, 240 h, read-out: Plant response rating, Foxtail, Giant): 90%
pest or weed control at 1000 g/ha ([19]; Lolium multiflorum, post-emergence, 240 h, read-out: Plant response rating, Ryegrass, Italian): 90%
plant injury at 1000 g/ha ([20]; Triticum aestivum, post-emergence, 240 h, read-out: Plant response rating, Wheat): 50%
